Source: ChEMBL document CHEMBL2073813, “Regulation of renal oatp mRNA expression by testosterone” (Am J Physiol, 1996)

Columns and labels:
[1] = target: T1, Solute carrier organic anion transporter family member 1A1 (Rattus norvegicus, UniProt P46720); experiment: TP_TRANSPORTER: Northern blot; format: functional
T1 sequence (P46720 whole entry): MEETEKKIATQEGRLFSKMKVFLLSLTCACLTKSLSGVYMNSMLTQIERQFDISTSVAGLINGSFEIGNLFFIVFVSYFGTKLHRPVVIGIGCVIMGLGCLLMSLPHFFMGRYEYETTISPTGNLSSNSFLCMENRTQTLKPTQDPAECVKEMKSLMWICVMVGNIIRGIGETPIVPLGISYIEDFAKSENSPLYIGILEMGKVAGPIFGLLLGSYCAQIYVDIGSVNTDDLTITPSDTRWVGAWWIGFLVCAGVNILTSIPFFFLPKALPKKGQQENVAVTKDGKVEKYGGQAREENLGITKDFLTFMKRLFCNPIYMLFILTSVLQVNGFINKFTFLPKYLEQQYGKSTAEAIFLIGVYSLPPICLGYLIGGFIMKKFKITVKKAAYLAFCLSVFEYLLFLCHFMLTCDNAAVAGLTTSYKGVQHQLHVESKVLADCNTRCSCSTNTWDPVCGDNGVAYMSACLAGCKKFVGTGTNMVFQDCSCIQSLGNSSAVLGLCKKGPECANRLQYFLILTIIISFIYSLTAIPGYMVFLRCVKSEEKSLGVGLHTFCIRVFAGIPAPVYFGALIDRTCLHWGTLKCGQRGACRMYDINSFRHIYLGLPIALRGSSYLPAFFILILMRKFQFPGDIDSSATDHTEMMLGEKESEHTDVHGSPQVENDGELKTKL

[2] = target: T1, Solute carrier organic anion transporter family member 1A1; experiment: TP_TRANSPORTER: Northern blot in vivo, kidney of SD rat; format: functional, organism-based, Sprague-Dawley

Row | Compound | Activity [1] | Activity [2]
1 | C[C@]12CC[C@@H]3c4ccc(O)cc4CC[C@H]3[C@@H]1CC[C@@H]2O [ESTRADIOL] | inducer [+] | –
2 | C[C@]12CC[C@H]3[C@@H](CCC4=CC(=O)CC[C@@]43C)[C@@H]1CC[C@@H]2O [TESTOSTERONE] | – | inducer [+]
